Values quoted from earlier work in US12691099B2, “Oral formulations of Edaravone and method of manufacturing thereof” (BDR PHARMACEUTICALS INTERNATIONAL PRIVATE LIMITED, priority 2019, dated 2026).
Values after ≈ are worked out from the molar mass of the structure shown.

Experiments:
[1] = poor solubility in water and lower lipid permeability

BCS class [1]: Class IV
solubility: 25 µg/mL (≈ 144 µM)
SMILES: CC1=NN(c2ccccc2)C(=O)C1 [Edaravone, 3-methyl-1-phenyl-2-pyrazolin-5-one]
